This passage reports Dmax and DC50 results from patent US12624044B2, “SMARCA degraders and uses thereof” (Kymera Therapeutics, Inc., priority 2019, dated 2026).

The assay concerns the target SMARCA2 (Homo sapiens, UniProt P51531). Put plainly: MSD SMARCA2 degradation in A549 cell line. Type of assay: cell-based. Conditions: 24 h; for Dmax: A549, A549 cells; for DC50: A549 cells, read-out: SMARCA2 MSD A549 degradation 24 h: Average external-Abs DC50. The procedure:
Cells were seeded into 96-well plates (A549 cells: 2×10^4 cells/well/100 ul media) abd incubated overnight. The next day, 200 nl compound were added into the intermediate plate with Echo (Labcyte 550) from source plate containing a 3-fold serial dilution from top concentration of 1 mM. The culture medium was changed with 80 ul of fresh medium and 80 ul of 2× compound solution was added into the well to make a final concentration of 1000 nM, 333.3 nM, 111.1 nM, 37.04 nM, 12.35 nM, 4.115 nM, 1.372 nM, 0.457 nM, 0.152 nM and 0 nM (DMSO). The wells were mixed and then incubated for 24 hours. The media was aspirated from the cultures and 60 ul pre-chilled PIPA lysis buffer (Boston BioProducts BP-115D) with protease/phosphatase inhibitor (Roche 05892791001/Roche 04906837001) was added into the well to lyze the cells for 20 minutes at 4° C. The MSD plate (L15XA) was coated with 40 ul cell lysate and incubated at 4° C. overnight. The next day, the plate was washed three times with TBST (CST #9997S), 150 ul/well. The MSD plates was blocked with 150 ul blocking buffer per well and shaked for 1 hr at RT, 600 rpm. The blocking buffer was 3% Blocker A (MSD, R93BA-4) in TBST. The MSD plate was washed three times with 150 ul/well of TBST and 25 ul/well of detection antibody (Rabbit anti-SMARCA2/BRM antibody, 100 μg/ml, ab223735) was added at final concentration of 1 ug/ml diluted in 1% Blocking buffer and shaken for 1 hour at RT, 600 rpm. The MSD plate was washed three times with 150 ul/well of TBST and 25 ul/well of SULFO-TAG anti-rabbit antibody (MSD, R32AB-1) was added at final concentration of 1 ug/ml diluted in 1% Blocking buffer and shaken for 1 hour at RT, 600 rpm. The MSD plate was washed three times with 150 ul/well of TBST and 150 ul/well of 2×MSD reading buffer diluted from 4× (MSD, R92TC-2) with water was added. Lastly, the MSD instrument was read.
The letter codes for the percentage of SMARCA2 degradation after 24 hours (Dmax %) include: A (>90% degradation), B (>70-90% degradation), C (50-70% degradation), and D (<50% degradation).

Where only a bound is given, the exact number is not on record here.

SMARCA2, sequence (P51531 whole entry): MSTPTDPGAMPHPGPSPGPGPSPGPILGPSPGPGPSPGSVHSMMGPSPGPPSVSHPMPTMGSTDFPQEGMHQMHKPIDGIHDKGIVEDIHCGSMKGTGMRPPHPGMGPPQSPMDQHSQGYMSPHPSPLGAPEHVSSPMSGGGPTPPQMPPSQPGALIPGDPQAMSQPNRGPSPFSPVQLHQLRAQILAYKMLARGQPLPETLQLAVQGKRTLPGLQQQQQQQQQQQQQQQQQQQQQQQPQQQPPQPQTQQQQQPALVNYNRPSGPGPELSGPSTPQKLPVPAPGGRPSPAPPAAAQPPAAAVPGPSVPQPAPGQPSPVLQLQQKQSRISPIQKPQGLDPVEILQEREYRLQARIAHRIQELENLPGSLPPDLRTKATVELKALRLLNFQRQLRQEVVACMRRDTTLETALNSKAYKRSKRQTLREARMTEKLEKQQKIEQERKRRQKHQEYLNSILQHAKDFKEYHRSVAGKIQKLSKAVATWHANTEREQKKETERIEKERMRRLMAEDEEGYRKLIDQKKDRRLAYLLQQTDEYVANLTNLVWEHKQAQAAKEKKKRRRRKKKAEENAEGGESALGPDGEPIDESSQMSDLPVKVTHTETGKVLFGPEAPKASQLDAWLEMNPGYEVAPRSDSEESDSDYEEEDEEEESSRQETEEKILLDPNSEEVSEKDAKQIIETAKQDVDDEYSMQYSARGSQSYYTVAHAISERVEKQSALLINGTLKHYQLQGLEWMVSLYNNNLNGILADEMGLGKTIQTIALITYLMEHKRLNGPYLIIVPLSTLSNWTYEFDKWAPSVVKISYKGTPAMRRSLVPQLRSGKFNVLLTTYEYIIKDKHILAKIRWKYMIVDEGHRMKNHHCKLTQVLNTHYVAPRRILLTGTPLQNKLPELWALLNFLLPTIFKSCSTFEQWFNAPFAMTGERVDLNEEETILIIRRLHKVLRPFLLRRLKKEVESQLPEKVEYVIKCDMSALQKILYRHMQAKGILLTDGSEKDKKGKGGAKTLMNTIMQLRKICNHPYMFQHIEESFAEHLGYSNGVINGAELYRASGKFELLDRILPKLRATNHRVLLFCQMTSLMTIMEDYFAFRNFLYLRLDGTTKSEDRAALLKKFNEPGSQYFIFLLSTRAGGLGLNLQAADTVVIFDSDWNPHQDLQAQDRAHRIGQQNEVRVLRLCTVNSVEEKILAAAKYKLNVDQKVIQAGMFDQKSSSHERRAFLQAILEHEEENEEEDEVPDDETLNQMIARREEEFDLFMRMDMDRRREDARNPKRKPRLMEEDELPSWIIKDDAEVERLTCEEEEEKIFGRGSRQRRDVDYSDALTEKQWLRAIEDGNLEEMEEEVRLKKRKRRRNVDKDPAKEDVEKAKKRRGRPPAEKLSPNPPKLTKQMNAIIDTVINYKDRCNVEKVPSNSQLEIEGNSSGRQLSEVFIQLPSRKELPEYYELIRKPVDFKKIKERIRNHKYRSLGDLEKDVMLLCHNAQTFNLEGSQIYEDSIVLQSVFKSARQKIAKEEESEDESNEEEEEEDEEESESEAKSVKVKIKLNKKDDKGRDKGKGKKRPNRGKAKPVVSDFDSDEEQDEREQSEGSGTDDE

By Dmax is commonly meant the largest share of the target that was removed. Low values mean shallow degradation, high ones deep degradation. Broadly, the DC50 is the concentration at which degradation of the target reaches its halfway point. In the case of `Cc1ncsc1-c1ccc(CNC(=O)[C@@H]2C[C@@H](O)CN2C(=O)[C@@H](NC(=O)[C@H]2CC[C@H](N3CC(c4cnc(N5C6CCC5CN(c5cc(-c7ccccc7O)nnc5N)C6)nc4)C3)CC2)C(C)(C)C)cc1` [I-393], the greatest degradation seen (Dmax) is over 90% and the half-maximal degradation concentration (DC50) lay in the range of 100 to 500 nM.

For `Cc1ncsc1-c1ccc(CNC(=O)[C@@H]2C[C@@H](O)CN2C(=O)[C@@H](NC(=O)C2CC3(CCN(Cc4cnc(N5C6CCC5CN(c5cc(-c7ccccc7O)nnc5N)C6)nc4)CC3)C2)C(C)(C)C)cc1` [I-394], the greatest degradation seen (Dmax) was over 90% and the DC50 was in the range of 100 to 500 nM.

On to `Cc1ncsc1-c1ccc(CNC(=O)[C@@H]2C[C@@H](O)CN2C(=O)[C@@H](NC(=O)[C@H]2CC[C@H](C(=O)N(C)Cc3cnc(N4C5CCC4CN(c4cc(-c6ccccc6O)nnc4N)C5)nc3)CC2)C(C)(C)C)cc1` [I-396], for which the Dmax fell in the range of 70 to 90% and the 50% degradation concentration (DC50) lay in the range of 100 to 500 nM.

For `Cc1ncsc1-c1ccc(CNC(=O)[C@@H]2C[C@@H](O)CN2C(=O)[C@@H](NC(=O)[C@H]2CC[C@H](N3CCC(CN4CCC(Cn5cc(-c6cc(-c7ccccc7O)nnc6N)cn5)CC4)CC3)CC2)C(C)(C)C)cc1` [I-397], the maximal degradation (Dmax) was under 50% and the DC50 was over 1000 nM.

Regarding `Cc1ncsc1-c1ccc(CNC(=O)[C@@H]2C[C@@H](O)CN2C(=O)[C@@H](NC(=O)[C@H]2CC[C@H](CN3CCC(c4cnc(N5C6CCC5CN(c5cc(-c7ccccc7O)nnc5N)C6)nc4)CC3)CC2)C(C)(C)C)c(C(F)(F)F)c1` [I-398], the greatest degradation seen (Dmax) lay in the range of 50 to 70% and the DC50 lay within 501 to 1000 nM.

`Cc1ncsc1-c1ccc(CNC(=O)[C@@H]2C[C@@H](O)CN2C(=O)[C@@H](NC(=O)[C@H]2CC[C@H](N3CCC(N4CCC(n5cc(-c6cc(-c7ccccc7O)nnc6N)cn5)CC4)CC3)CC2)C(C)(C)C)cc1` [I-400, (2S,4R)-1-((S)-2-((1r,4S)-4-(4-(4-(3-amino-6-(2-hydroxyphenyl)pyridazin-4-yl)-1H-pyrazol-1-yl)-[1,4′-bipiperidin]-1′-yl)cyclohexanecarboxamido)-3,3-dimethylbutanoyl)-4-hydroxy-N-(4-(4-methylthiazol-5-yl)benzyl)pyrrolidine-2-carboxamide]: the greatest degradation seen (Dmax) was 70 to 90% and the DC50 fell in the range of 501 to 1000 nM.

For the compound `Cc1ncsc1-c1ccc(CNC(=O)[C@@H]2C[C@@H](O)CN2C(=O)[C@@H](NC(=O)[C@@H]2CC3CCC2C[C@@H]3c2cnc(N3C4CCC3CN(c3cc(-c5ccccc5O)nnc3N)C4)nc2)C(C)(C)C)cc1` (some centres unmarked) [I-410], the Dmax was over 90% and the 50% degradation concentration (DC50) is 100 to 500 nM.

`Cc1ncsc1-c1ccc(CNC(=O)[C@@H]2C[C@@H](O)CN2C(=O)[C@@H](NC(=O)[C@H]2CC[C@@H](Cc3ccc(-c4cnc(N5C6CCC5CN(c5cc(-c7ccccc7O)nnc5N)C6)nc4)cc3)CC2)C(C)(C)C)cc1` [I-413]: the Dmax was 70 to 90% and the DC50 lay within 100 to 500 nM.

For `Cc1ncsc1-c1ccc(CNC(=O)[C@@H]2C[C@@H](O)CN2C(=O)[C@@H](NC(=O)C2CC3(C2)CC(N2CCC(c4cnc(N5C6CCC5CN(c5cc(-c7ccccc7O)nnc5N)C6)nc4)CC2)C3)C(C)(C)C)cc1` (some centres unmarked) [I-414], the greatest degradation seen (Dmax) is over 90% and the DC50 was in the range of 100 to 500 nM.

Take `Cc1ncsc1-c1ccc(CNC(=O)[C@@H]2C[C@@H](O)CN2C(=O)[C@@H](NC(=O)C2CC3(C2)CC(N(C)Cc2cnc(N4C5CCC4CN(c4cc(-c6ccccc6O)nnc4N)C5)nc2)C3)C(C)(C)C)cc1` (some centres unmarked) [I-416]: the Dmax is over 90% and the half-maximal degradation concentration (DC50) was in the range of 100 to 500 nM.

In the case of `Cc1ncsc1-c1ccc(CNC(=O)[C@@H]2C[C@@H](O)CN2C(=O)[C@@H](NC(=O)[C@H]2CC3(C[C@H](CN(C)Cc4cnc(N5C6CCC5CN(c5cc(-c7ccccc7O)nnc5N)C6)nc4)C3)C2)C(C)(C)C)cc1` (some centres unmarked) [I-417], the greatest degradation seen (Dmax) was over 90% and the DC50 lay in the range of 100 to 500 nM.

Regarding `Cc1ncsc1-c1ccc(CNC(=O)[C@@H]2C[C@@H](O)CN2C(=O)[C@@H](NC(=O)C2CC=C(c3nccc(N4C5CCC4CN(c4cc(-c6ccccc6O)nnc4N)C5)n3)CC2)C(C)(C)C)cc1` (some centres unmarked) [I-418], the Dmax is over 90% and the DC50 is 100 to 500 nM.

For `Cc1ncsc1-c1ccc(CNC(=O)[C@@H]2C[C@@H](O)CN2C(=O)[C@@H](NC(=O)[C@H]2CC[C@@H](Cc3cnc(N4C5CCC4CN(c4cc(-c6ccccc6O)nnc4N)C5)nc3)CC2)C(C)(C)C)c(C(F)(F)F)c1` [I-421], the Dmax lay in the range of 70 to 90% and the DC50 fell in the range of 100 to 500 nM.

Take `Cc1ncsc1-c1ccc(CNC(=O)[C@@H]2C[C@@H](O)CN2C(=O)[C@@H](NC(=O)[C@H]2CC[C@H](Cc3cnc(N4C5CCC4CN(c4cc(-c6ccccc6O)nnc4N)C5)nc3)CC2)C(C)(C)C)c(C(F)(F)F)c1` [I-422]: the maximal degradation (Dmax) is over 90% and the half-maximal degradation concentration (DC50) was 100 to 500 nM.

Turning to `Cc1ncsc1-c1ccc(CNC(=O)[C@@H]2C[C@@H](O)CN2C(=O)[C@@H](NC(=O)[C@H]2CC3(C[C@H](CN4CCC(c5cnc(N6C7CCC6CN(c6cc(-c8ccccc8O)nnc6N)C7)nc5)CC4)C3)C2)C(C)(C)C)cc1` (some centres unmarked) [I-426], the greatest degradation seen (Dmax) is over 90% and the DC50 was 100 to 500 nM.

For `Cc1ncsc1-c1ccc(CNC(=O)[C@@H]2C[C@@H](O)CN2C(=O)[C@@H](NC(=O)C23CCC(CN(C)Cc4cnc(N5C6CCC5CN(c5cc(-c7ccccc7O)nnc5N)C6)nc4)(CC2)CC3)C(C)(C)C)cc1` [I-429], the maximal degradation (Dmax) lay within 70 to 90% and the 50% degradation concentration (DC50) fell in the range of 100 to 500 nM.

Regarding `Cc1ncsc1-c1ccc(CNC(=O)[C@@H]2C[C@@H](O)CN2C(=O)[C@@H](NC(=O)[C@H]2CC3(C[C@H](CN4CCC(n5cc(-c6cc(-c7ccccc7O)nnc6N)cn5)CC4)C3)C2)C(C)(C)C)cc1` (some centres unmarked) [I-432], the Dmax was over 90% and the DC50 lay within 100 to 500 nM.

In the case of `Cc1ncsc1-c1ccc(CNC(=O)[C@@H]2C[C@@H](O)CN2C(=O)[C@@H](NC(=O)[C@H]2CC[C@@H](N3CCC(N4CCC(n5cc(-c6cc(-c7ccccc7O)nnc6N)cn5)CC4)CC3)CC2)C(C)(C)C)cc1` [I-435], the Dmax is under 50% and the DC50 was over 1000 nM.

For `Cc1ncsc1-c1ccc(CNC(=O)[C@@H]2C[C@@H](O)CN2C(=O)[C@@H](NC(=O)[C@H]2CC[C@@H](N3CC(c4cnc(N5C6CCC5CN(c5cc(-c7ccccc7O)nnc5N)C6)nc4)C3)CC2)C(C)(C)C)cc1` [I-436], the Dmax was over 90% and the DC50 lay in the range of 100 to 500 nM.

With `Cc1ncsc1-c1ccc(CNC(=O)[C@@H]2C[C@@H](O)CN2C(=O)[C@@H](NC(=O)[C@H]2CC[C@@H](c3cnc(N4C5CCC4CN(c4cc(-c6ccccc6O)nnc4N)C5)nc3C)CC2)C(C)(C)C)cc1` [I-440], the Dmax is over 90% and the DC50 was in the range of 100 to 500 nM.

Regarding `Cc1ncsc1-c1ccc(CNC(=O)[C@@H]2C[C@@H](O)CN2C(=O)[C@@H](NC(=O)[C@H]2CC3CCC2C[C@@H]3c2cnc(N3C4CCC3CN(c3cc(-c5ccccc5O)nnc3N)C4)nc2)C(C)(C)C)cc1` (some centres unmarked) [I-441], the Dmax is over 90% and the DC50 lay in the range of 100 to 500 nM.

Consider `Cc1ncsc1-c1ccc(CNC(=O)[C@@H]2C[C@@H](O)CN2C(=O)[C@@H](NC(=O)C2CC3CCC2C[C@H]3c2cnc(N3C4CCC3CN(c3cc(-c5ccccc5O)nnc3N)C4)nc2)C(C)(C)C)c(C(F)(F)F)c1` (some centres unmarked) [I-442], for which the Dmax was in the range of 50 to 70% and the half-maximal degradation concentration (DC50) was 501 to 1000 nM.

`Cc1ncsc1-c1ccc(CNC(=O)[C@@H]2C[C@@H](O)CN2C(=O)[C@@H](NC(=O)[C@H]2C[C@]3(C[C@H](CN(C)Cc4cnc(N5C6CCC5CN(c5cc(-c7ccccc7O)nnc5N)C6)nc4)C3)C2)C(C)(C)C)cc1` (some centres unmarked) [I-443]: the half-maximal degradation concentration (DC50) is 100 to 500 nM.

Turning to `Cc1ncsc1-c1ccc(CNC(=O)[C@@H]2C[C@@H](O)CN2C(=O)[C@@H](NC(=O)CCN2CCC(n3cc(-c4cc(-c5ccccc5O)nnc4N)cn3)CC2)C(C)(C)C)cc1` [I-458], the Dmax was under 50% and the 50% degradation concentration (DC50) was over 1000 nM.

With `Cc1ncsc1-c1ccc(CNC(=O)[C@@H]2C[C@@H](O)CN2C(=O)[C@@H](NC(=O)CCN(C)Cc2ccc(N3CCN(c4cc(-c5ccccc5O)nnc4N)CC3)cc2)C(C)(C)C)cc1` [I-463], the Dmax is under 50% and the DC50 is over 1000 nM.

As for `Cc1ncsc1-c1ccc(CNC(=O)[C@@H]2C[C@@H](O)CN2C(=O)[C@@H](NC(=O)CCCN(C)Cc2ccc(N3CCN(c4cc(-c5ccccc5O)nnc4N)CC3)cc2)C(C)(C)C)cc1` [I-464], the Dmax is under 50% and the DC50 was over 1000 nM.

Turning to `Cc1ncsc1-c1ccc(CNC(=O)[C@@H]2C[C@@H](O)CN2C(=O)[C@@H](NC(=O)CCN2CCC(Cn3cc(-c4cc(-c5ccccc5O)nnc4N)cn3)CC2)C(C)(C)C)cc1` [I-466], the greatest degradation seen (Dmax) was under 50% and the half-maximal degradation concentration (DC50) was over 1000 nM.
